{
  "source": "patent US20080112954A1",
  "about": "“Method for treating chronic pain” (Parker College of Chiropractic, priority 2006, published 2008)",
  "key": {"[1]": {"tested_on": "synapses between C-fibers and DH neurons", "assay": "LTP of C-fiber evoked field potentials in spinal dorsal horn in vivo", "parameters": "species or system rat", "settings": "for LTP produced by 4 high-frequency trains of nerve shock: naïve animals", "method": "Under anesthesia, a cannula was inserted into the trachea to allow artificial ventilation and another cannula containing heparin (0.03%) saline was inserted into the left carotid artery to monitor the blood pressure. The rat was placed in a stereotaxic frame, then was paralyzed by an intravenous injection of pancuronium bromide (4 mg/kg) and artificially ventilated with air at a tidal volume of 15 ml/kg. Adequate anesthesia was confirmed intermittently during neuromuscular blockade in terms of the following two criteria: (1) the pupils were constricted; (2) the blood pressure remained stable during noxious stimulation. Core body temperature was monitored through a thermister probe inserted into the rectum and maintained at 37.5±0.5° C. by means of a feedback-controlled heating pad under the ventral surface of the abdomen. In each experiment phosphate-buffered saline (PBS) was intermittently administered via a jugular vein cannula to maintain hydroelectrolyte balance. A laminectomy was performed to expose the lumbar spinal cord. The dura mater was then removed the exposed cord was immediately covered with warm agar (2% in saline). After the agar hardened, a small hole was made above the recording site for application of drug or vehicle. At the end of each experiment, the animals were killed by an overdose of intravenous pentobarbital (200 mg/kg).\nLong-term potentiation (LTP) tests were performed on naïve rats. The protocol for the electrophysiological recordings of C-fiber evoked field potentials was similar to that described previously (Liu and Sandkuhler, 1998). The recordings were made at depths of 200-500 μm from the surface of the spinal cord between L4-L5 with glass capillary microelectrodes (DC resistances 3-5 MΩ filled with 2 M NaCl). The sciatic nerve was stimulated by a bipolar platinum hook electrode. […] Examples of the C-fiber-evoked field potentials given in each figure were recorded before (a) and after (b) tetanic stimulation (indicated by the arrow therein) or ephrinB1-Fc. […]"}, "naïve rats": {"tested_on": "naïve rats", "assay": "Thermal sensitivity of naïve rats after intrathecal EphB receptor activators", "type": "in vivo, rat", "settings": "prior injection of 20 μg"}},
  "data": [
    {"smiles": "C[C@]12N[C@H](Cc3ccccc31)c1ccccc12", "note": "[MK-801, dizocilpine]", "values": [
      {"measurement": "LTP produced by 4 high-frequency trains of nerve shock", "setting": "[1]; post-treatment", "result": "not interrupted"},
      {"measurement": "LTP induced by the combination of ephrinB1-Fc and 2 tetanic trains", "setting": "[1]; pre-treatment, n=5", "result": "blocked"},
      {"measurement": "LTP produced by 4 high-frequency trains of nerve shock", "setting": "[1]; topical pre-treatment", "result": "blocked"},
      {"measurement": "thermal hypersensitivity induced by injection of ephrinB1-Fc or ephrinB2-Fc", "setting": "naïve rats", "result": "prevented"}
    ]}
  ]
}
